# Assay results from ChEMBL document CHEMBL1201862, “PubChem BioAssay data set” (2004).
#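 These data come from cells grown in 96-well plates and exposed to compound for 48 hours at five concentrations. At the GI50, growth is halved.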 Active and inactive are the calls of the source. Rule as the data show it: active = GI50 up to about 1.1 µM and inactive = higher.
# Experiments:
# Assay in all cases: NCI tumour cell line growth inhibition, 48 h
# RXF 393 = test system: RXF 393
# EKVX = test system: EKVX
# PC-3 = test system: PC-3
# Hs-578T = test system: Hs-578T
# 786-0 = test system: 786-0
# ACHN = test system: ACHN
# SK-MEL-5 = test system: SK-MEL-5
# T47D = test system: T47D
# LOX IMVI = test system: LOX IMVI
# SF-295 = test system: SF-295
# M14 = test system: M14
# U-251 = test system: U-251
# NCI-H522 = test system: NCI-H522
# SK-MEL-28 = test system: SK-MEL-28
# A549 = test system: A549
# NCI-H460 = test system: NCI-H460
# NCI-H23 = test system: NCI-H23
# UO-31 = test system: UO-31
# HT-29 = test system: HT-29
# BT-549 = test system: BT-549
Compound,GI50 (RXF 393),GI50 (EKVX),GI50 (PC-3),GI50 (Hs-578T),GI50 (786-0),GI50 (ACHN),GI50 (SK-MEL-5),GI50 (T47D),GI50 (LOX IMVI),GI50 (SF-295),GI50 (M14),GI50 (U-251),GI50 (NCI-H522),GI50 (SK-MEL-28),GI50 (A549),GI50 (NCI-H460),GI50 (NCI-H23),GI50 (UO-31),GI50 (HT-29),GI50 (BT-549)
c1cc2c(cc1C(N1CCNCC1)N1CCNCC1)OCO2,> 100 µM (inactive),> 100 µM (inactive),> 100 µM (inactive),> 100 µM (inactive),> 100 µM (inactive),> 100 µM (inactive),> 100 µM (inactive),> 100 µM (inactive),> 100 µM (inactive),> 100 µM (inactive),> 100 µM (inactive),> 100 µM (inactive),> 100 µM (inactive),> 100 µM (inactive),> 100 µM (inactive),> 100 µM (inactive),> 100 µM (inactive),> 100 µM (inactive),> 100 µM (inactive),> 100 µM (inactive)
Cc1cc2[nH]c(=NS(=O)(=O)c3cc(C)c(Cl)cc3S)[nH]c2cc1C,> 100 µM (inactive),24.1 µM (inactive),66.4 µM (inactive),> 100 µM (inactive),61.7 µM (inactive),73.8 µM (inactive),32.7 µM (inactive),82.2 µM (inactive),28.9 µM (inactive),53.8 µM (inactive),86.5 µM (inactive),36.2 µM (inactive),> 100 µM (inactive),> 100 µM (inactive),35.7 µM (inactive),16.9 µM (inactive),> 100 µM (inactive),84.5 µM (inactive),> 100 µM (inactive),> 100 µM (inactive)
COC1=C(C)C(=O)C2=C(C1=O)C1C3CC4=C(C(=O)C(OC)=C(C)C4=O)C(CNC(=O)C(C)O)N3C(C#N)C(C2)N1C (stereo not given),< 0.0121 µM (active),0.0199 µM (active),< 0.011 µM (active),< 0.01 µM (active),< 0.0113 µM (active),0.157 µM (active),< 0.01 µM (active),< 0.01 µM (active),< 0.01 µM (active),0.0579 µM (active),< 0.0112 µM (active),< 0.01 µM (active),< 0.01 µM (active),< 0.01 µM (active),0.166 µM (active),0.0159 µM (active),< 0.0178 µM (active),0.101 µM (active),< 0.01 µM (active),< 0.01 µM (active)
CCN(CC)CCNC(=O)c1ccc(C)c(OCc2ccccc2)c1[N+](=O)[O-],52.5 µM (inactive),68.5 µM (inactive),45.3 µM (inactive),28.6 µM (inactive),33.3 µM (inactive),56.8 µM (inactive),16.3 µM (inactive),20.7 µM (inactive),22.5 µM (inactive),24.5 µM (inactive),17.8 µM (inactive),39.7 µM (inactive),27 µM (inactive),19.4 µM (inactive),44.8 µM (inactive),36.6 µM (inactive),54.3 µM (inactive),21 µM (inactive),19.1 µM (inactive),> 35.8 µM (inactive)
COC(=O)C1=C(O)C(C(=O)OC)[C@@]2(O)[C@@H](C(=O)OC)C(c3ccc(OC(=O)/C(=C/c4ccc(Cl)cc4)c4ccc(Cl)cc4)cc3)C[C@@H]1[C@@H]2C(=O)OC (stereo not given in full),11.2 µM (inactive),33.8 µM (inactive),24.1 µM (inactive),> 100 µM (inactive),22 µM (inactive),32.4 µM (inactive),26.1 µM (inactive),18.7 µM (inactive),14.3 µM (inactive),29.8 µM (inactive),15.6 µM (inactive),24.4 µM (inactive),36.6 µM (inactive),> 100 µM (inactive),77.4 µM (inactive),14.4 µM (inactive),50.1 µM (inactive),12.6 µM (inactive),38.5 µM (inactive),95.7 µM (inactive)
